Here are results for four compounds from US8536171B2, “Method for obtaining 5-amino 2,3-dihydrophthalazine-1,4-dione alkali metal salts and their use in medicine” (Abidopharma PL SP. Z.O.O., priority 2009, dated 2013).

For data set [1] the following is noted: background statement; cited from earlier work.
The test system of data set [2] is rats with STZ diabetes. The data set can be described thus: Rats with diabetes induced by streptozotocin (STZ). The following applies: for glycemia / level of malonic dialdehyde (MDA), oxidation stress marker: in comparison to the group of the STZ untreated rats. Format: in vivo.
For data set [3], the system named is patients with acute and chronic pancreatitis.
Data set [4] concerns patients suffering from diabetes of type I and type II.
The subject of data set [5] is people after myocardial infarction. To be noted: 15 patients, versus control group.
Excerpt: II-Na salt was applied also for treatment of people after myocardial infarction.
In data set [6] the test system is patients with inflammatory diseases of head, maxillofacial area and neck. To be noted: above 50 patients, various forms and doses.
Data set [7] deals with rats with experimental myocardial infarction. How it is done:
(§1) The animals of 230 to 258 g were subjected to ether narcosis for 1-3 minutes, Next, by the thoracotomy method there was achieved access to the anterior branch of the coronary artery and its lumen was closed by means of an electrode. The wound was closed by atraumatic sutures. […] The rats were divided in two groups.
(§2) The animals were being observed for 24 hours (every one in a separate cage). […] The second group of 10 rats (5 of each group) were killed after 5 days and the third group of 10 animals (5 of each group)—after 7 days. In all the rats there was performed postmortem macroscopic examination of hearts, pleura and abdominal cavity organs. The tissues were taken from the infarct focus for microscopic examination. They were retained in formalin and stained conventionally with H-E. Blood for biochemical tests was taken by heart puncture of 3 ml volume.

The test system of data set [8] is model animals with experimentally-induced sepsis. To be noted: 0% for untreated animals.
The subject of data set [9] is rats with experimentally developed muscles ischemia.
In data set [10] the test system is psychotic and neurological patients (multiple sclerosis, anxiety, depression). The data set can be described thus: Clinical trials in nervous system and psychic diseases. Format: in vivo, human.
Excerpt: In the psychotic patients in combination with the conventional treatment and in the neurological patients as monotherapy.
Data set [11] has as its system rats with alloxan diabetes. An excerpt: The results were presented below in Table 2.
The results of the trials were presented below in Table 3.

The subject of data set [12] is rats with experimental myocardial infarction. To be noted: for ALT / AST / CPK / LDH1, 2: blood, 5 mg/kg per 24 hours intramuscularly, n = 5. How it is done: as §1, §2
In the biochemical trials there were estimated levels of creatinine kinase (CPK), lactate dehydrogenase (LDH 1-2), aspargine transaminase (AST) and alanine transaminase (ALT) before the infarct and on 1, 5 and 7 day after the infarct (Apparatus “Immunochemistry System”, Beckman Coulter, “DSL”, “Multiscan”, Labsystem; Glycomat DSS, Drew).

Setting [13] is: blood, alloxan diabetes rats treated with II-Na salt (Table 2).
[14] abbreviates: blood, alloxan diabetes rats treated with II-Na salt (Table 3).

Read-outs that look alike come from different tables or passages of the source.

Turning to `Nn1[nH]c(=O)c2ccccc2c1=O.[Na]` [compound III, 2-amino-1,2,3,4-tetrahydrophthalazine-1,4-dione sodium salt], in [1], the solubility in water result is recorded as “easily soluble in water”.

Consider `CN(CCOc1ccc(CC2SC(=O)NC2=O)cc1)c1ccccn1` (centres unmarked) [Rosiglytazone, reference compound], for which, in data set [2], the glycemia was 55% and the “level of malonic dialdehyde (MDA), oxidation stress marker” value is listed as 54%. Besides, the “level of glutathione (GSH), oxidation stress marker” value in data set [2] (in comparison to the healthy rats) turned out to be 127%.

On to `Nc1cccc2c(=O)[nH][nH]c(=O)c12.[Na]` [II-Na salt, 5-amino-2,3-dihydrophthalazine-1,4-dione sodium salt], for which, in [3] (2 patients, after treatment), the “starting formation of pseudocysts” value was “disappeared”. For the same compound, the septic complications entry in data set [3] (25 patients, conventional therapy plus II-Na salt) is listed as “one patient”. Besides, in data set [3] (after a month, of 25 patients), the “normalization of the laboratory tests results” value is reported as “twenty two patients”. In addition, in data set [3] (after three weeks of treatment, of 25 patients), the “patients who could come back to nutrition per os” value was “twenty patients”. In addition, in data set [3] (after two weeks of treatment), the insulin level entry is “raised nearly to normal” and the “reduction of the glucose level” value is reported as “two times”. The “reduction Hb1AC” value in data set [3] (after two weeks of treatment, fifteen patients with reduced insulin level) is listed as “in six patients to the normal range”. The same compound had an insulin administration in data set [3] (after two weeks of treatment, from up to 40 IU/day) of 10 IU/day. Also, the “pain disappeared in all patients (time)” value in [3] (control group: above two weeks) was “seven days”. Also, the “pain symptoms reduced in all the patients (time)” value in data set [3] (day of treatment) is on record as “second day”. Further, the “effects observed in the pancreas” value in data set [3] (research (rats, 5 mg per kg per 24 hours for a month) and clinical trials) was “inhibition of inflammatory and necrotic processes in the pancreas”. Moreover, in [2], the glycemia is listed as 62% and the “level of malonic dialdehyde (MDA), oxidation stress marker” value is 48.7%. The “level of glutathione (GSH), oxidation stress marker” value in [2] (result in words) is listed as “does not change”. In addition, the glycemia level in data set [4] (after a week of treatment, from 7.5 mmol/l, 100 mg intramuscular injection) is 5.1 mmol/L. The insulin dose in data set [4] (after a week of treatment, reduced from 45 IU) worked out at 15 IU per day. Moreover, in data set [4] (patients with diabetes of type II), the cholesterol level result is recorded as “slight reduction”. For the same compound, the “pain discomfort in the chest” value in data set [5] (100/200 mg per 24 hours intramuscular for seven days plus conventional therapy) is “quicker reduction of pain discomfort in the chest”. In addition, in [5], the “blood biochemical parameters (CPK, LDH, ALT, AST) and x-ray image” value is “quicker normalization of blood biochemical parameters”. The “effect on inflammatory state” value in data set [6] was “quicker tissues regeneration, inhibition of apoptosis and quicker symptoms subsidence or remission maintenance”. Further, the “polymorphic-nucleated leucocytes in the demarcation zone” value in [7] (fifth day) is reported as “not observed”. Further, the “postoperative wound healed by first intension (per primam)” value in data set [7] (fifth day, 4 rats without II-Na salt) was “all 5 rats”. For the same compound, the leucocytes migration result in data set [7] (first 24 hours after the infarct) is recorded as “not observed”. For the same compound, in data set [7] (fourteenth day, 5 mg/kg), the “fibrosis (Weinert's staining)” value was “only few traits of fibrosis” and the polymorphic-nucleated leucocytes entry is “not observed”. Also, the “regeneration processes of damaged tissues” value in [7] (overall conclusion) was “positive influence on regeneration processes of damaged tissues”. Further, the “capillary vessels in the infarct zone” value in data set [7] (seventh day) is reported as “normal of the sinusoidal type”. In [8], this compound returned a viability of rats of 80%. In addition, the “Number of capill. in 1 mm^3” value in [9] (Ischaemia-12 days) was 152.3 ± 12.7 in 1 mm^3. Besides, in [9] (Ischaemia-29 days), the “Number of capill. in 1 mm^3” value is recorded as 236.4 ± 16.9 in 1 mm^3. The “lymphocytic profile and cytokines” value in [10] (II-Na salt 100 mg per 24 hours intramuscularly for 30 days) was “normalization of the lymphocytic profile and cytokines”. Further, the disease symptoms entry in data set [10] (human, in vivo) was “disease symptoms reduction”. Besides, the “preventive use in the period of remission” value in data set [10] (spring and autumn, 100 mg/d, 10 injections every day and 10 every second day) is reported as “long-time remission”. Besides, in data set [11] (blood, alloxan diabetes rats treated with II-Na salt), the IGF-1 was 699.13 ± 81.4 ng/mL. For the same compound, in [11] (setting [13]), the IGF-2 was 37.9 ± 1.65 ng/mL and the Insulin is 0.724 ± 0.08 mg/mL. For the same compound, in data set [11] (setting [14]), the IGF-2 was found to be 37.9 ± 1.65 ng/mL and the Insulin was found to be 7.24e-07 ± 8e-08 mg/mL. The Glucose in [11] (blood, alloxan diabetes rats treated with II-Na salt, 5 mg per kg per 24 hours for a month, sodium salt) came out at 4.16 ± 0.56 mmol/L. The “Glycated hemoglobin (Hb A1C)” value in [11] (blood, alloxan diabetes rats treated with II-Na salt, sodium salt) is 9.05 ± 0.58 %. Moreover, the IGF-1/IGF-2 in [11] (ratio, alloxan diabetes rats treated with II-Na salt) worked out at 16.2 ± 2.4. In data set [12] (fifth day after infarct), the ALT was 0.271 ± 0.059 µmol/L; the AST came to 0.204 ± 0.03 µmol/L; the CPK is 405.28 ± 27.84 µmol/L; the “LDH1, 2” value turned out to be 187.94 ± 34.37 µmol/L. Besides, in [12] (first day after infarct), the ALT came to 0.178 ± 0.028 µmol/L; the AST was determined as 0.254 ± 0.034 µmol/L; the CPK worked out at 322.56 ± 43.79 µmol/L; the “LDH1, 2” value amounted to 248.84 ± 41.10 µmol/L. Besides, in data set [12] (seventh day after infarct), the ALT came to 0.24 ± 0.024 µmol/L; the AST came out at 0.225 ± 0.024 µmol/L; the CPK was found to be 291.35 ± 18.9 µmol/L; the “LDH1, 2” value came to 175.5 ± 25.89 µmol/L. For the same compound, in data set [12] (conclusion on Table 1), the “normalization of the tested blood parameters” value is recorded as “quicker normalization of all the tested parameters”.

For the compound `Nc1cccc2c(=O)[nH][nH]c(=O)c12` [luminol, 5-Amino-2,3-dihydrophthalazine-1,4-dione], the solubility in water result in data set [1] is listed as “poorly soluble in water”.
